Data published in patent US20250041245A1, “ENDOXIFEN FOR TREATMENT OF CANCERS” (Atossa Therapeutics, Inc., priority 2021, published 2025).
Where “and” joins values, the source holds several entries; their conditions need not be identical. Identical values can stand only once. Entries after “also recorded” stand apart in the source; their conditions may differ.

Key:
Type in all cases: cell-based, human
Parameters in all cases: key to Personalization Category: Personalization categories range from High, Good, Moderate, Low, to None; Personalization categories range from High, Good, Moderate, Low, to None; Personalization categories range from High, Good, Moderate, Low, to None; Personalization categories range from High, Good, Moderate, Low, to None; Personalization categories range from High, Good, Moderate, Low, to None; key to Sensitivity Category: Sensitivity categories range from High, Good, Moderate, Low, to None; Sensitivity categories range from High, Good, Moderate, Low, to None; Sensitivity categories range from High, Good, Moderate, Low, to None; Sensitivity categories range from High, Good, Moderate, Low, to None; Sensitivity categories range from High, Good, Moderate, Low, to None; AUC: unit not given beside the values
[1] = system: patient-derived tumor organoids (PDTOs), cholangiocarcinoma; experiment: Endoxifen screen in PDTOs: cholangiocarcinoma; conditions: each line one patient sample; for IC50: four-parameter logistic fit
Description: (§1) This example describes screening endoxifen in patient-derived tumor organoids. Endoxifen was tested as a single agent on tumor organoids derived from patients diagnosed with various cancer types using a personalized cancer treatment screening assay (PARIS© Test, SEngine Precision Medicine). The screen utilized patient-derived tumor organoids (PDTOs) along with high-throughput drug screening and machine learning-guided data analysis to quantify the efficacy of endoxifen against samples derived from individual patients diagnosed with various cancer types. PDTOs are self-organizing, three-dimensional organoid structures that recapitulate structural, functional, and genomic aspects of in vivo organs. The PDTOs were grown in culture from patient tumor biopsy samples.
(§2) Fresh patient biopsy samples received following surgery were cleaned and purified. Immune cells (e.g., lymphocytes, blood cells), cancer-associated fibroblasts, and other non-tumor cells were removed to establish pure PDTOs for endoxifen testing. The tumor organoids were grown and expanded by supplying organ- and patient-specific growth factors and nutrients. The PDTOs were treated with increasing concentrations of endoxifen ranging from about 30 nM to about 10 μM, and the drug response was measured using a luminescence readout. A lower luminescence was indicative of a stronger drug response.
(§3) The results were analyzed using a “SEngine Precision Medicine” (SPM) scoring system to assess the sensitivity and personalization of each tumor organoid to endoxifen. The SPM score correlates with clinical outcomes, such that a higher SPM score for a specific PDTO-drug combination predicts a more favorable clinical outcome following treatment of the corresponding patient with the tested drug.
(§4) This example describes testing endoxifen efficacy against 17 distinct cancer types in patient-derived tumor organoids (PDTOs). Screening of PDTOs was performed as described in EXAMPLE 1. For each PDTO sample, the drug response was measured using a luminescent readout over a range of endoxifen concentrations. The drug response was evaluated based on the area under the fitted dose response curve (AUC) and the SPM scoring system. AUC values were normalized for each PDTO. Briefly, data points at each drug concentration were first normalized to a negative control, then a dose response drug curve was approximated using a four-parameter logistic model fitted to the normalized data points. The area under the curve was calculated from the normalized curve. Normalization allowed for comparison of AUC values between patient samples. The SPM scores were based on machine learning models that incorporate values for how well the drug kill patient cells (sensitivity metric), the relative drug responses of a patient to all other patients in a sample database (personalization metric), and knowledge of clinical outcomes for patients that had been evaluated with the personalized cancer screening assay (PARIS® Test, SEngine Precision Medicine).
The SPM scoring system evaluated whether a PDTO was unresponsive or responsive to endoxifen and the degree of drug response for PDTOs that were responsive to endoxifen. The SPM scoring system generated metrics an SPM score, predictive of clinical outcome, overall drug response (response category), drug sensitivity (sensitivity category), and drug personalization (personalization category). SPM scores ranged from 1-15, corresponding to the following drug response categories: no response (SPM 1-8), low response (SPM 9), moderate response (SPM 10-11), good response (SPM 12-13), and exceptional response (SPM 14-15). […] Moderate to good drug responses (SPM 10-13) may indicate that a drug has clinical relevance, possibly in combination with other drugs. The sensitivity category was determined from the sensitivity metric and is a measure of overall cell death of a patient's cells in response to endoxifen at six concentrations. […]

[2] = system: patient-derived tumor organoids (PDTOs), myxofibrosarcoma; experiment: Endoxifen screen in PDTOs: myxofibrosarcoma
Description: as §1, §2, §3, §4
(§5) The SPM scoring system evaluated whether a PDTO was unresponsive or responsive to endoxifen and the degree of drug response for PDTOs that were responsive to endoxifen. […] The sensitivity category was determined from the sensitivity metric and is a measure of overall cell death of a patient's cells in response to endoxifen at six concentrations. […]

[3] = system: patient-derived tumor organoids (PDTOs), primary peritoneal carcinoma; experiment: Endoxifen screen in PDTOs: primary peritoneal carcinoma
Description: as §1, §2, §3, §4, §5

**Q.** Which results are given for `CC/C(=C(\c1ccc(O)cc1)c1ccc(OCCNC)cc1)c1ccccc1` [Endoxifen, 4-hydroxy-N-desmethyltamoxifen]?
**A.** IC50 ([1]; Homo sapiens): 8.7 µM; Personalization Category [1]: None and Low; Response Category [1]: None (no response (SPM 1-8)); also recorded: Low (low response (SPM 9)); Sensitivity Category [1]: None and Low; IC50 [1]: 9.19 µM; AUC ([1]; normalized area under fitted dose response curve): 0.9497 and 0.9011 and 0.9669; SPM Score ([1]; score range 1-15): 1 and 9 and 3; IC50 ([2]; Homo sapiens, patient 1, four-parameter logistic fit): 7.25 µM; Personalization Category ([2]; patient 1): None; Sensitivity Category ([2]; patient 1): None; AUC ([2]; patient 1, normalized area under fitted dose response curve): 0.9384; SPM Score ([2]; patient 1, score range 1-15): 1; IC50 ([3]; Homo sapiens, patient 72, four-parameter logistic fit): 9.37 µM; Personalization Category ([3]; patient 72): None; Sensitivity Category ([3]; patient 72): None; AUC ([3]; patient 72, normalized area under fitted dose response curve): 0.9623; SPM Score ([3]; patient 72, score range 1-15): 1
